According to US5698691A, “Condensed cyclic compounds and their use” (Takeda Chemical Industries, Ltd., priority 1993, dated 1997):

How the values were obtained:
squalene synthetase [1] = biological target: T1, squalene synthetase (Rattus norvegicus, UniProt Q02769); assay: Squalene synthetase inhibitory activity, rat-derived enzyme (liver microsome fraction); format: biochemical; details: SD rat liver microsome fraction; 5 uM [1-3H] farnesyl pyrophosphate, 37° C., 45 minutes
T1 construct: from tissue; host or cells: rat liver microsome fraction (SD male rat, 6 weeks old)
T1 sequence (Q02769 1-416): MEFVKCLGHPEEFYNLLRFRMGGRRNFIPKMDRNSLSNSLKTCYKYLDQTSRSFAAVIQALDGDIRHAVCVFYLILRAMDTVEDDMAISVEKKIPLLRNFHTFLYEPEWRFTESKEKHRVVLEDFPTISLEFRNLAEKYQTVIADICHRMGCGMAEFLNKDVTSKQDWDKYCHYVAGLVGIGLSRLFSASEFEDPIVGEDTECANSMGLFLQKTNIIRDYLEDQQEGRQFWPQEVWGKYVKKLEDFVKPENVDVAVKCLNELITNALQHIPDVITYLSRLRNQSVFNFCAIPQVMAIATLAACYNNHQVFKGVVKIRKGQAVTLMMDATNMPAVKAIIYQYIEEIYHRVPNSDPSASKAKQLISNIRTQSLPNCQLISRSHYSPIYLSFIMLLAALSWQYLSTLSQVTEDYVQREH
Description: (§1) Assay Method of Squalene Synthetase Inhibitory Activity
(§2) The squalene synthetase inhibitory activity was assayed as follows with the enzyme solutions described in the subsequent Experimental Examples 1 and 2.
(§3) More specifically, an enzyme solution (protein content 0.8 ug) prepared in Experimental Example 1 or 2 was added to a solution (total volume 50 μl)) containing 5 uM [1-^3 H] farnesyl pyrophosphate (specific activity 25 uCi/mole), 1 mM NADPH, 5 mM MgCl2, 6 mM glutathione, a 100 mM buffer solution of potassium phosphate (pH 7.4) and a test drug (used as an aqueous solution or a DMSO solution), then the reaction was allowed to proceed at 37° C. for 45 minutes. To the reaction mixture was added 150 μl of a mixture of chloroform and methanol (1:2) to suspend the reaction, followed by adding 50 μl of chloroform and 50 μl of a 3N aqueous solution of sodium hydroxide. 50 μl of the chloroform layer (lower layer) containing the reaction mixture having squalene as the principal component and 3 ml of toluene-based liquid scintillator were mixed, and its radioactivity was determined by means of a liquid scintillation counter.
(§4) The squalene synthetase inhibitory activity was expressed in terms of the concentration inhibiting by 50% the radioactivity taken into the chloroform layer (IC50, molar concentration (M)).
An SD male rat (6 week old) was killed by bleeding, and its liver was excised. About 10 g of the liver was washed with a saline solution cooled with ice, which was then homogenized in 15 ml of an ice-cooled buffer solution [100 mM potassium phosphate (pH 7.4), 15 mM nicotinamide, 2 mM MgCl2 ], followed by centrifugation for 20 minutes (4° C.) with 10000×g. The supernatant layer was separated and subjected to further centrifugation for 90 minutes (4° C.) at 105000×g. The sediment was then suspended in an ice-cooled 100 mM phosphate buffer solution (pH 7.4), which was again subjected to centrifugation for 90 minutes (4° C.) at 105000×g. The sediment thus obtained (microsome fraction) was suspended in an ice-cooled 100 mM potassium phosphate buffer (pH 7.4) (about 40 mg/ml protein concentration, determined with BCA protein assay kit of Pias Co., Ltd.). This suspension was used as the enzyme solution.

squalene synthetase [2] = biological target: T2, squalene synthetase (Homo sapiens, UniProt P37268); assay: Squalene synthetase inhibitory activity, human-derived enzyme (HepG2 microsome fraction); format: biochemical; details: 5 uM [1-3H] farnesyl pyrophosphate, 37° C., 45 minutes
T2 construct: endogenous in cells; host or cells: HepG2 (human hepatic carcinoma) cells, microsome fraction
T2 sequence (P37268 1-417): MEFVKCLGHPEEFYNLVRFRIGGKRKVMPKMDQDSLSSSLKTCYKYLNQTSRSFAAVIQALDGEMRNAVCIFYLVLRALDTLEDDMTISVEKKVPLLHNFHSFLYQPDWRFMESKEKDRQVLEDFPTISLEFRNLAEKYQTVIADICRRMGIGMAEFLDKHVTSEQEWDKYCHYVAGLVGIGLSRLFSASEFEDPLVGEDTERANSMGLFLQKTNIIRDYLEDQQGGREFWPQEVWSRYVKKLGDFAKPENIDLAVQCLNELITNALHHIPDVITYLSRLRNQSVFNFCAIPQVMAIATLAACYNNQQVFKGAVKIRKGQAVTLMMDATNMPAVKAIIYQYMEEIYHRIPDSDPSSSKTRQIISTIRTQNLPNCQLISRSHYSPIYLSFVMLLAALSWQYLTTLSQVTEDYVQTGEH
Description: as §1, §2, §3, §4
Human hepatic carcinoma cells HepG2 (about 1×10^9 cells) obtained by incubation in a Dulbecco-modified Eagle's medium (37° C. in the presence of 5% CO2) were suspended in 10 ml of an ice-cooled buffer solution [100 mM potassium phosphate buffer (pH 7.4), 30 mM nicotinamide and 2.5 mM MgCl2 ]. The cells were crashed by means of ultrasonication (for 30 seconds, twice). From the sonicate thus obtained, the microsome fraction was obtained by the same procedure as in Experiment Example 1, which was suspended in an ice-cooled 100 mM potassium phosphate buffer (pH 7.4) (about 4 mg/ml protein concentration). This suspension was used as the enzyme solution. The results are shown in [Table 4].

| Structure (SMILES) | IC50 (squalene synthetase [1]) | IC50 (squalene synthetase [2]) |
| --- | --- | --- |
| COc1cccc([C@H]2S[C@H](CC(=O)O)C(=O)N(CC(C)(C)C)c3ccc(Cl)cc32)c1OC [Example 43, (3R,5S)-7-Chloro-5-(2,3-dimethoxyphenyl)-1-neopentyl-2-oxo-1,2,3,5-tetrahydro-4,1-benzothiazepine-3-acetic acid] | 9.3 nM | 5.9 nM |
| COc1ccc([C@H]2S[C@H](CC(=O)O)C(=O)N(CC(C)(C)C)c3ccc(Cl)cc32)c(OC)c1 [Example 51, (3R,5S)-7-Chloro-5-(2,4-dimethoxyphenyl)-1-neopentyl-2-oxo-1,2,3,5-tetrahydro-4,1-benzothiazepine-3-acetic acid] | 21 nM | 18 nM |
| CC(C)(C)CN1C(=O)N(CC(=O)O)CC(c2ccccc2Cl)c2cc(Cl)ccc21 (centres unmarked) [Example 53, 7-Chloro-5-(2-chlorophenyl)-1-neopentyl-2-oxo-1,2,4,5-tetrahydro-3H-1,3-benzodiazepine-3-acetic acid] | 290 nM | 130 nM |
| COc1cccc([C@H]2S[C@H](Cc3nnn[nH]3)C(=O)N(CC(C)(C)C)c3ccc(Cl)cc32)c1OC [Example 59, (3R,5S)-7-Chloro-5-(2,3-dimethoxyphenyl)-1-neopentyl-3-(tetrazol-5-yl)methyl-1,2,3,5-tetrahydro-4,1-benzothaizepin-2-one] | 16 nM | 10 nM |
